Measured values from US20200000099A1 (priority 2017, published 2020).

Tested on: Xylella fastidiosa (Xf)
Format: cell-based
Conditions: crude ethyl acetate extract of culture supernatant; activity traced to metabolite by NMR and MS

For C/C=C/c1cc2c(c(=O)o1)C(=O)[C@@H](O)[C@H](C)O2 [radicinin], the “anti-Xf activity of extract / metabolite” value was “inhibitory activity”.
